According to ChEMBL document CHEMBL5346955, “Discovery of HPG1860, a Structurally Novel Nonbile Acid FXR Agonist Currently in Clinical Development for the Treatment of Nonalcoholic Steatohepatitis” (J Med Chem, 2023):
Converted amounts (≈) assume the structure as drawn. One block for each compound: values may come before it. The source made the active and inactive calls. The rule behind the calls is not given here.

What was measured:
Bile acid receptor [1] = target: T1, Bile acid receptor (Homo sapiens, UniProt Q96RI1); assay: Agonist activity at GST-tagged human FXR-LBD in presence of luorescein-SRC2-2 coactivator peptide by TR-FRET assay
T1 sequence (Q96RI1 whole entry): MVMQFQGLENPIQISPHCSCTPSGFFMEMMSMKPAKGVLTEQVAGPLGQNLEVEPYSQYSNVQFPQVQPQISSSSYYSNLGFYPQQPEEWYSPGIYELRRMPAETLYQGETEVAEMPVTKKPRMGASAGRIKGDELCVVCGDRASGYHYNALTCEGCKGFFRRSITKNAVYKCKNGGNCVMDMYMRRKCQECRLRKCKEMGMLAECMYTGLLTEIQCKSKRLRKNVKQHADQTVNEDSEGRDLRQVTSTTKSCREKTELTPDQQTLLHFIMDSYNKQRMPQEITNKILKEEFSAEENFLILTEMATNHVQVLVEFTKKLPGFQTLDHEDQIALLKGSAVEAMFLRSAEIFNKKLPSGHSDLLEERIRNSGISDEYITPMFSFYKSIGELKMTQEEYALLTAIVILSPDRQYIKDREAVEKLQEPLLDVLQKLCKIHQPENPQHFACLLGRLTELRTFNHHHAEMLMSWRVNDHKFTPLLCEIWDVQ

Bile acid receptor [2] = target: T1, Bile acid receptor; assay: Agonist activity at human GAL4-FXR-LBD expressed in HEK293T cells assessed as transcriptional activity measured after 16 to 20 hrs by luciferase reporter gene assay; assay type: cell-based
[3] = Metabolic stability in human liver microsomes assessed as half life at 1 uM measured upto 120 mins by UPLC/MS/MS analysis; assay type: ADME, Microsome
[4] = Metabolic stability in rat liver microsomes assessed as half life at 1 uM measured upto 120 mins by UPLC/MS/MS analysis; assay type: ADME, Microsome
[5] = Metabolic stability in dog liver microsomes assessed as half life at 1 uM measured upto 120 mins by UPLC/MS/MS analysis; assay type: ADME, Canis lupus familiaris, Microsome
[6] = Metabolic stability in cynomolgus monkey liver microsomes assessed as half life at 1 uM measured upto 120 mins by UPLC/MS/MS analysis; assay type: ADME, Macaca fascicularis, Microsome
[7] = Solubility of the compound in PBS buffer at pH 7.4; assay type: physicochemical
[8] = Toxicity in C57BL/6J mouse assessed as change in body weight at 30 mg/kg, po qd; assay type: organism-based; conditions: in vivo
Mus musculus [9] = assay: Anti-nonalcoholic steatohepatitis activity against ccl4-induced C57BL/6J mouse model assessed as decrease in ALT level in liver at 30 mg/kg, po qd treated for 28 days; assay type: functional, organism-based; conditions: time 28.0 day
Mus musculus [10] = assay: Anti-nonalcoholic steatohepatitis activity against ccl4-induced C57BL/6J mouse model assessed as decrease in AST level in liver at 30 mg/kg, po qd treated for 28 days; assay type: functional, organism-based; conditions: time 28.0 day
Mus musculus [11] = assay: Anti-nonalcoholic steatohepatitis activity against ccl4-induced C57BL/6J mouse model assessed as reduction total cholesterol in serum at 30 mg/kg, po qd treated for 28 days; assay type: functional, organism-based; conditions: time 28.0 day
Mus musculus [12] = assay: Anti-nonalcoholic steatohepatitis activity against ccl4-induced C57BL/6J mouse model assessed as clearance of liver steatosis at 30 mg/kg, po qd treated for 28 days; assay type: functional, organism-based; conditions: time 28.0 day
Mus musculus [13] = assay: Anti-nonalcoholic steatohepatitis activity against ccl4-induced C57BL/6J mouse model assessed as improvement in liver inflammation at 30 mg/kg, po qd treated for 28 days; assay type: functional, organism-based; conditions: time 28.0 day
Mus musculus [14] = assay: Anti-nonalcoholic steatohepatitis activity against ccl4-induced C57BL/6J mouse model assessed as improvement in fibrosis at 30 mg/kg, po qd treated for 28 days; assay type: functional, organism-based; conditions: time 28.0 day

SMILES: COc1cc(C(=O)O)cc2sc(N3CCN(Cc4c(-c5c(Cl)cccc5Cl)noc4C4CC4)C[C@@H]3C)nc12
- EC50 (Bile acid receptor [1]): 0.016 µM
- EC50 (Bile acid receptor [2]): 0.124 µM
- half-life at 1 µM [3]: 5.11 h
- half-life at 1 µM [4]: 1.83 h
- half-life at 1 µM [5]: 0.832 h
- half-life at 1 µM [6]: 1.14 h

SMILES: CC(C)c1onc(-c2c(Cl)cccc2Cl)c1CN1CCN(c2nc3cccc(C(=O)O)c3s2)CC1
- EC50 (Bile acid receptor [2]): > 5 µM

SMILES: C[C@@H]1CN(Cc2c(-c3c(Cl)cccc3Cl)noc2C2CC2)CCN1c1nc2c(F)cc(C(=O)O)cc2s1
- EC50 (Bile acid receptor [1]): 0.006 µM
- EC50 (Bile acid receptor [2]): 0.039 µM
- solubility [7]: 129 µM (≈ 72.5 µg/mL)
- half-life at 1 µM [3]: 1.47 h
- half-life at 1 µM [4]: 1.54 h
- half-life at 1 µM [5]: 6.67 h
- half-life at 1 µM [6]: 1.94 h

SMILES: COc1cc(C(=O)O)cc2sc(N3CCC(Cc4c(-c5c(Cl)cccc5Cl)noc4C(C)C)C3)nc12 (stereo not given)
- EC50 (Bile acid receptor [1]): > 5 µM
- EC50 (Bile acid receptor [2]): > 5 µM

SMILES: CC[C@H]1[C@@H](O)C2[C@@H]3CC[C@H]([C@H](C)CCC(=O)O)[C@@]3(C)CC[C@@H]2[C@@]2(C)CC[C@@H](O)C[C@@H]12 (stereo not given in full)
- Activity [8]: Non-Toxic
- Activity (Mus musculus [9]): inactive
- Activity (Mus musculus [10]): inactive
- Activity (Mus musculus [11]): Active
- Activity (Mus musculus [12]): Active
- Activity (Mus musculus [13]): inactive
- Activity (Mus musculus [14]): Active

Continued, values first:

- EC50 (Bile acid receptor [1]): 0.2 µM
- EC50 (Bile acid receptor [2]): > 5 µM
SMILES: COc1cc(C(=O)O)cc2sc(C3CCN(Cc4c(-c5c(Cl)cccc5Cl)noc4C(C)C)CC3)nc12

- EC50 (Bile acid receptor [1]): 0.031 µM
- EC50 (Bile acid receptor [2]): 0.147 µM
SMILES: COc1cc(C(=O)O)cc2sc(N3CCN(Cc4c(-c5c(Cl)cccc5Cl)noc4C(C)C)CC3)nc12

- EC50 (Bile acid receptor [2]): 1.24 µM
SMILES: COc1cc(C(=O)O)cc2sc(N3CCN(Cc4c(-c5c(Cl)cccc5Cl)noc4C(C)C)CC34CC4)nc12

- EC50 (Bile acid receptor [1]): 0.021 µM
- EC50 (Bile acid receptor [2]): 0.085 µM
SMILES: CCC1CN(Cc2c(-c3c(Cl)cccc3Cl)noc2C(C)C)CCN1c1nc2c(OC)cc(C(=O)O)cc2s1 (stereo not given)
